Source: patent US11084822B2, “Salts and processes of preparing a PI3K inhibitor” (Incyte Corporation, priority 2015, dated 2021)

Experiments:
Format in all cases: biochemical
[1] = test system: PI3K; assay: PI3K inhibition according to at least one assay described herein
[2] = biological target: PI3Kδ (Homo sapiens (Human), UniProt O00329); assay: Example A2: PI3K Enzyme Assay ([γ-33P]ATP filter plate); details: assay of Example A2
Protocol: PI3K isoforms α, β, δ and γ are purchased from Millipore (Bedford, Mass.).
The kinase reactions are conducted in clear-bottom 96-well plate from Thermo Fisher Scientific in a final volume of 24 μL. Inhibitors are first diluted serially in DMSO and added to the plate wells before the addition of other reaction components. The final concentration of DMSO in the assay is 0.5%. […] The reaction mixture is prepared containing 50 μM PIP2, kinase and varying concentration of inhibitors. […] Reactions are incubated for 180 minutes and terminated by the addition of 100 μL of 1 M potassium phosphate pH 8.0, 30 mM EDTA quench buffer. A 100 μL aliquot of the reaction solution are then transferred to 96-well Millipore MultiScreen IP 0.45 μm PVDF filter plate (The filter plate is prewetted with 200 μL 100% ethanol, distilled water, and 1 M potassium phosphate pH 8.0, respectively). […] After drying by aspiration and blotting, the plate is air dried in an incubator at 37° C. overnight. Packard TopCount adapter (Millipore) is then attached to the plate followed with addition of 120 μL Microscint 20 scintillation cocktail (Perkin Elmer) in each well. After the plate sealing, the radioactivity of the product is determined by scintillation counting on Topcount (Perkin-Elmer). […]

[3] = biological target: JAK1 (Homo sapiens (Human), UniProt P23458); assay: JAK1 IC50 by the method of Assay A at 1 mM ATP
[4] = biological target: JAK2 (Homo sapiens (Human), UniProt O60674); assay: JAK2 versus JAK1 (Assay A at 1 mM ATP); details: ratio JAK2/JAK1, Assay A at 1 mM ATP
Sequence of JAK2 (O60674 whole entry, species assumed): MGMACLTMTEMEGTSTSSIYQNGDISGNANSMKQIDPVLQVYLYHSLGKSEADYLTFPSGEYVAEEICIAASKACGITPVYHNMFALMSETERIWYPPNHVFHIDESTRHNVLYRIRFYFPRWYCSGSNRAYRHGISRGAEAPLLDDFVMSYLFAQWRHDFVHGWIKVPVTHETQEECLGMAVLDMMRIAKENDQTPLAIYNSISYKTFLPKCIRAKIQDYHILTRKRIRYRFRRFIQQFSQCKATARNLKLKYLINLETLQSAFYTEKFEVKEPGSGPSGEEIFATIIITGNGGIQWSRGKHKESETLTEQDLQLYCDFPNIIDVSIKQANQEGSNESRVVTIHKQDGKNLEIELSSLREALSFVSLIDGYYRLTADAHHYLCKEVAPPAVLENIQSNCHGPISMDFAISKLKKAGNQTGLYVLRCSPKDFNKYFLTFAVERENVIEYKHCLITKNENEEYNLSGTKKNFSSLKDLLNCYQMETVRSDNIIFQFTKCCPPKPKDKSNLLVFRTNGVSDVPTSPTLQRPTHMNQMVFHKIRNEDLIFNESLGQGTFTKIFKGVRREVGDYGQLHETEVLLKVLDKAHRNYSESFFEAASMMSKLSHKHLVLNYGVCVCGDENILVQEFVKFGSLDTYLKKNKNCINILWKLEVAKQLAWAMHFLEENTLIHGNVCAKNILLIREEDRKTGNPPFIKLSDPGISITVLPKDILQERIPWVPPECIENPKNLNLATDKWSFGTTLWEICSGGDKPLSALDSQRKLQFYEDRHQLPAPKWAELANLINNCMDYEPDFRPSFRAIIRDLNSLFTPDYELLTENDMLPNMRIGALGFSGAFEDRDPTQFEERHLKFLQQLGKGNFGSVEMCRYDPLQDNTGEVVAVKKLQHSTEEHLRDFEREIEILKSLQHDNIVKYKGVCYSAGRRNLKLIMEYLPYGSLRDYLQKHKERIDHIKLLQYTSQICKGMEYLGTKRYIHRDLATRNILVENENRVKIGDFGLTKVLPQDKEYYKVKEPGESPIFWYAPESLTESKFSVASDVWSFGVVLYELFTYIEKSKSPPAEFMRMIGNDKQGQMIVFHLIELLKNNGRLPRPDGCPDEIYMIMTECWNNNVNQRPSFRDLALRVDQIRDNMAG

Sequence of JAK1 (P23458 whole entry, species assumed): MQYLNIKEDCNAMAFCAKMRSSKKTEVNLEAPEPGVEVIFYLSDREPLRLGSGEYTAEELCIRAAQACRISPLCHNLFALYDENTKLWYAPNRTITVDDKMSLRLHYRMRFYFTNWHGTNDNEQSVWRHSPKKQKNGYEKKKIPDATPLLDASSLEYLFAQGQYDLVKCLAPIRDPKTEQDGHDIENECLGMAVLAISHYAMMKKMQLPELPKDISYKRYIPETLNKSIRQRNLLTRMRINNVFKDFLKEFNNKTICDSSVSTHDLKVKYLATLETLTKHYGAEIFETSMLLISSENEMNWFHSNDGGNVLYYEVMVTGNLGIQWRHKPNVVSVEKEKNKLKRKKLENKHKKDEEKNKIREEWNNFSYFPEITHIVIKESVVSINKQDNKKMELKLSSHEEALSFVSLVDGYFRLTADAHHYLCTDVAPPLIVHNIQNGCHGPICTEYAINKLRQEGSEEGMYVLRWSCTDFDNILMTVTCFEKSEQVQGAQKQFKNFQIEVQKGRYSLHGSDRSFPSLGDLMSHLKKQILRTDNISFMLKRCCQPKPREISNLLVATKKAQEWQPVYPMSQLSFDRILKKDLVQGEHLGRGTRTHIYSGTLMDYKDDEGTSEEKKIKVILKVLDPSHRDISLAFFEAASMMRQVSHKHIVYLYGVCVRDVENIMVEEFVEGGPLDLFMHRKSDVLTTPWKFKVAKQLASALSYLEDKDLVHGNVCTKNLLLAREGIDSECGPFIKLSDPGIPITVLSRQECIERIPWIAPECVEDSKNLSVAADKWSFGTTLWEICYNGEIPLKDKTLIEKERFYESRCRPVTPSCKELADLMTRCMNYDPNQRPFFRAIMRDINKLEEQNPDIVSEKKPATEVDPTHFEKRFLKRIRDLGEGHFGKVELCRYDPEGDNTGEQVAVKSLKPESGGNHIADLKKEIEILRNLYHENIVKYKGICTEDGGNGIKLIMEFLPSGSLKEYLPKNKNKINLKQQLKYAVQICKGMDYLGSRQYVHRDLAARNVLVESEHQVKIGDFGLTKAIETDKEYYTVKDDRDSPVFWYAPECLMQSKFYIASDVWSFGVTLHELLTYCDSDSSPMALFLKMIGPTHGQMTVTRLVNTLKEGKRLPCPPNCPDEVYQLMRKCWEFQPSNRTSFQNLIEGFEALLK
Sequence of PI3Kδ (O00329 whole entry, species assumed, canonical isoform): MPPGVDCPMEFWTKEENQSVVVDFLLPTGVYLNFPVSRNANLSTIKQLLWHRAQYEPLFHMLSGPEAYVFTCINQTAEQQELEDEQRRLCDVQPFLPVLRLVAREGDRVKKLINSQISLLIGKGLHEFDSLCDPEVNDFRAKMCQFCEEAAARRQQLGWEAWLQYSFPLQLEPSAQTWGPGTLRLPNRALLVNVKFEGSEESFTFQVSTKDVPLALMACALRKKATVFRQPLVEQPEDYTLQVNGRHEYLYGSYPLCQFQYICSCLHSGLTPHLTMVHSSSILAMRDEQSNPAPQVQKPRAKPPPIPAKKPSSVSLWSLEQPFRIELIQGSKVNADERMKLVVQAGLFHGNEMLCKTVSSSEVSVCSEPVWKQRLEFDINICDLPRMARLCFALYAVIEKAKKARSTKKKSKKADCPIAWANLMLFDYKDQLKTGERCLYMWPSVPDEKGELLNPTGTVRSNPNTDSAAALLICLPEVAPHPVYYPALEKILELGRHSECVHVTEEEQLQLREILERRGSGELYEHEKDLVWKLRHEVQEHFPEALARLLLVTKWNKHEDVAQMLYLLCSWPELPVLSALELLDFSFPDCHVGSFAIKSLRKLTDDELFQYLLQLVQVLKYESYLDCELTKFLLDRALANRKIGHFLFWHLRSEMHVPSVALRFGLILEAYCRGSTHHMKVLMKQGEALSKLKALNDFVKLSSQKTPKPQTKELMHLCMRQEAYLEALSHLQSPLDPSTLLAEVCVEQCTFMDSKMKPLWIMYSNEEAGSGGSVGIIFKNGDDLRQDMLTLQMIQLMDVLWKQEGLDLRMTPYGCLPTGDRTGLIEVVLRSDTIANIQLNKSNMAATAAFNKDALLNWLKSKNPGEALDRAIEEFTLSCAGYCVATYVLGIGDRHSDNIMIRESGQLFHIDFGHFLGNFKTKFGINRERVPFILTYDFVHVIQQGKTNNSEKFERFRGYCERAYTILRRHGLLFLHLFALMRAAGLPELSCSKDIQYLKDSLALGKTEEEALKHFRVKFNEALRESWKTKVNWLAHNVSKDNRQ
Sequence of PI3Kδ (P27986 whole entry partner, species assumed, canonical isoform): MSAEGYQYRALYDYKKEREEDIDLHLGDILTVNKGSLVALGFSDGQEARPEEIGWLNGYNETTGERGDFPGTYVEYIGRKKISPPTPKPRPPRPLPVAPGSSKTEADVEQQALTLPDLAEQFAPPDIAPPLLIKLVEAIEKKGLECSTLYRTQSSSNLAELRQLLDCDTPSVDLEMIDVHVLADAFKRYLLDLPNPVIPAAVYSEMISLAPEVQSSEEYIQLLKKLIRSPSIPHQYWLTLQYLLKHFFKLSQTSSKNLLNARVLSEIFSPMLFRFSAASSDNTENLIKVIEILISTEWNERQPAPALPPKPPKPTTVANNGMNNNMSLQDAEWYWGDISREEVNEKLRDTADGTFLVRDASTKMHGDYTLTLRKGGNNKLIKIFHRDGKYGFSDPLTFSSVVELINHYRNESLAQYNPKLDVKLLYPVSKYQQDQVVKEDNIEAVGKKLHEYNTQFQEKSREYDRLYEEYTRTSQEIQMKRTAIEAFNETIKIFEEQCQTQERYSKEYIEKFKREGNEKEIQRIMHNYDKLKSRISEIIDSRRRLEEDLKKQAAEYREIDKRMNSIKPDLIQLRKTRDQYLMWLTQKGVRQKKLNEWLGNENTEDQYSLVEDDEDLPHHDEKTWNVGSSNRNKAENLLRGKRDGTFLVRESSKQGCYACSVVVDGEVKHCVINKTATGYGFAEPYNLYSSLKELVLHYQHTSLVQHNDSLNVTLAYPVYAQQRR

Q: Which PI3K inhibition [1] does the source give for `CCOc1c([C@H](C)n2nc(C)c3c(N)ncnc32)cc(Cl)c(F)c1[C@@H]1CNC(=O)C1.Cl` [(R)-4-(3-((S)-1-(4-amino-3-methyl-1H-pyrazolo[3,4-d]pyrimidin-1-yl)ethyl)-5-chloro-2-ethoxy-6-fluorophenyl)pyrrolidin-2-one hydrochloride] here?
A: found to be PI3K inhibitors

Q: What about the “selectivity for PI3Kδ” value [2] of the same molecule?
A: selective inhibitor for PI3Kδ

Q: With `C[C@@H](O)c1nc2cnc3ccsc3c2n1[C@H]1CC[C@H](CC#N)OC1` [Compound 1, ((2R,5S)-5-{2-[(1R)-1-hydroxyethyl]-1H-imidazo[4,5-d]thieno[3,2-b]pyridin-1-yl}tetrahydro-2H-pyran-2-yl)acetonitrile] as the molecule, how does the IC50 [3] read?
A: < 100 nM

Q: And the JAK2/JAK1 [4]?
A: >10
